From patent US20130023504A1, “Modulation of Prostaglandin/Cyclooxygenase Metabolic Pathways” (HUNTER-FLEMING LIMITED, priority 2006, published 2013)
Marks after values point to notes of the source that are not given here.

Test system: COX-2 mRNA
Assay: COX-2 mRNA in human PBMC with and without TNF-α, quantitative RT-PCR
Type: cell-based
Procedure: Whole blood was collected from donors in EDTA-supplemented pouches at the Etablissement Français du Sang (Brest, France). The PBMC were isolated then from whole blood under sterile conditions within 36 hours after collection. Gradient density centrifugation was carried out on Ficoll (Eurobio). After washing in RPMI 1640 medium (Eurobio), cells were suspended in RPMI 1640 medium supplemented with 10% heat-inactivated fetal calf serum (Eurobio), 2 mM glutamine (D. Dutscher), 100 U of penicillin/ml (D. Dutscher), and 100 μg of streptomycin/ml (D. Dutscher). Monocytes were selected by plastic adherence for 1 h and approximately 10^7 cells were plated in 6-well tissue culture plates (3 mL medium per well). All incubations were performed in a humidified incubator at 37° C. and 5% CO2. Cells were recovered and dispersed in 2 ml fresh incubation medium supplemented with either 7β-hydroxyEPIA, 7β-hydroxy-DHEA, or 7α-hydroxy-DHEA (in 20 μL ethanol) in the presence or absence of 0.01 μg/mL TNF-α (Sigma-Aldrich). Control incubations contained 20 μl ethanol but no steroid. Supernatants were collected after 4 h and 24 hours incubations for measurement of their PG contents and cells were used for subsequent RNA isolation. A single step extraction method using the Trizol Reagent (Invitrogen, Cergy-Pontoise, France) provided total RNA.
cDNAs were synthesized from TURBO DNase I—treated RNA (Ambion, Huntingdon, UK) using the Superscript first strand synthesis system kit (Invitrogen). RT-PCR amplification mixtures (50 μL) contained 2.5× RealMaster Mix/20×SYBR solution (11.25 μL) (Eppendorf, Le Pecq, France) and 200 nM forward and reverse primers. Reactions were run on a RealPlex ep gradient S mastercycler (Eppendorf). The cycling conditions were 10 minutes at 95° C. and 45 cycles at 95° C., 55° C. and 68° C. for 15 seconds, 30 seconds and 30 seconds, respectively. Each assay included a standard curve of four serial dilution points of control cDNA. The HPRT1 housekeeping gene was used for quantification. All oligonucleotide primers (Table 2) were synthesized by Genecust/Distribio (Evry, France). The specificity of the amplified product was monitored by examining the melting curve of the product and confirmed by analysis on agarose gel electrophoresis.
All assays were carried out in triplicate and results were plotted as mean±S.E.M. One-way analysis of variance was performed followed by Duncan's multiple range tests in order to compare the differences between groups. Differences were considered statistically significant when p<0.05.

SMILES: CC12CCC3C(C1CCC2=O)[C@@H](O)C[C@H]1C[C@@H](O)CCC31C (stereo partly drawn) [Compound 7β-OH-EPIA, 7β-hydroxy-EPIAndrosterone]
- COX-2 (mRNA), mRNA production relative to controls (1 nM + TNF-α (10 ng/mL), 4 h): 7.39 ± 0.282^c
- COX-2 (mRNA), mRNA production relative to controls (1 nM + TNF-α (10 ng/mL), 24 h): 2.74 ± 0.555^c
- COX-2 (mRNA), mRNA production relative to controls (1 nM, 4 h, without TNF-α): 0.56 ± 0.072^b
- COX-2 (mRNA), mRNA production relative to controls (1 nM, 24 h, without TNF-α): 0.82 ± 0.27^b
- COX-2 (mRNA), mRNA production relative to controls (10 nM + TNF-α (10 ng/mL), 4 h): 2.75 ± 0.147^d
- COX-2 (mRNA), mRNA production relative to controls (10 nM + TNF-α (10 ng/mL), 24 h): 0.94 ± 0.194^d
- COX-2 (mRNA), mRNA production relative to controls (10 nM, 4 h, without TNF-α): 0.94 ± 0.048
- COX-2 (mRNA), mRNA production relative to controls (10 nM, 24 h, without TNF-α): 1.66 ± 0.408
- COX-2 (mRNA), mRNA production relative to controls (100 nM + TNF-α (10 ng/mL), 4 h): 5.76 ± 0.660
- COX-2 (mRNA), mRNA production relative to controls (100 nM + TNF-α (10 ng/mL), 24 h): 0.67 ± 0.132^d
- COX-2 (mRNA), mRNA production relative to controls (100 nM, 4 h, without TNF-α): 1.10 ± 0.108
- COX-2 (mRNA), mRNA production relative to controls (100 nM, 24 h, without TNF-α): 1.05 ± 0.214
